Experiments:
Type in all cases: in vivo
[1] = tested on: Trialeurodes vaporariorum; test: Whiteflies on tomatoes, further test (Example 6)
Protocol: This example describes a further test with the formulation according to the invention against whiteflies (Trialeurodes vaporariorum) on tomatoes (Lycopersicon esculentum). The test was carried out under GEP according to EPPO guideline PP 1/36(2) with 4 repetitions of in each case 5 plants. At the start of the infection, the plants were treated as follows: • 1. untreated • 2. compound (I-1) as SL 200 (compound according to formula (I-1), 17% strength), 50 g of active compound/ha • 3. azadirachtin 15 g of active compound/ha, NeemAzal® • 4. azadirachtin 5 g of active compound/ha, NeemAzal® 5. compound (I-1) as SL 200+azadirachtin, 50+15 g of active compound/ha • 6. compound (I-1) as SL 200+azadirachtin, 50+5 g of active compound/ha • 7. positive control imidacloprid 100 g of active compound/ha
The spray solution was prepared by mixing commercial formulations and using water to adjust to the concentration mentioned. The application rate was 1000 l/ha. 2 applications were carried out at intervals of 10 days. The number of adult flies and the number of larvae were scored on days 2 to 32 after the first application. What is shown is the effect of the products, which becomes evident in a reduction of the number of insects or larvae compared to the untreated control. Imidacloprid was also tested, as positive control.

[2] = tested on: Phyllotreta nigripes; test: Turnip flea beetle on cabbage (Example 10); settings: (I-1) 150, azadirachtin 30, (I-1)+azadirachtin 150+30, imidacloprid 100 g/ha
Protocol: Example 10 describes the effect of the combination according to the invention on caterpillars of the turnip flea beetle Phyllotreta nigripes on cabbage. The test was carried out according to EPPO guidelines PP 1/210(1), PP 1/152 (2), PP 1/181 (3) and PP 1/135 with 4 repetitions of in each case 10 plants. The plants were treated as follows: • 1. untreated • 2. compound (I-1) as SL 200 (compound according to formula (I-1), 17% strength), 150 g of active compound/ha • 3. azadirachtin 30 g of active compound/ha, NeemAzal® • 4. compound (I-1) as SL 200+azadirachtin, 150+30 g of active compound/ha • 5. positive control imidacloprid 100 g of active compound/ha
The spray solution was prepared by mixing commercial formulations and using water to adjust to the concentration mentioned. The application rate was 1000 l/ha. 2 applications were carried out at intervals of 14 days. The number of live caterpillars on days 7 to 32 after the first application was scored. What is shown is the effect of the products, which becomes evident in a reduction of the number of caterpillars compared to the untreated control.

[3] = tested on: Spodoptera exigua; test: Spodoptera exigua caterpillars on carnations, feeding damage (Example 1); settings: for Day 7 reduction of feeding damage in %: Day 7, (I-1) 150, azadirachtin 30, (I-1)+azadirachtin 150+30, imidacloprid 100 g of active compound/ha; for Day 32 reduction of feeding damage in %: Day 32, (I-1) 150, azadirachtin 30, (I-1)+azadirachtin 150+30, imidacloprid 100 g of active compound/ha; for Day 40 reduction of feeding damage in %: Day 40, (I-1) 150, azadirachtin 30, (I-1)+azadirachtin 150+30, imidacloprid 100 g of active compound/ha
Protocol: Example 1 describes the effect of the combination according to the invention on caterpillars of the owlet moth (Spodoptera exigua) on carnations (Dianthus caryophyllus). Azadirachtin was employed as NeemAzal® from Trifolio GmbH. The test was carried out according to EPPO guidelines PP 1/152 (2), PP 1/181 (3), PP 1/135 (3) and PP 1/210 (1) with 4 repetitions of in each case 10 plants. At the start of the infection, the plants were treated as follows: • 1. untreated • 2. compound (I-1) as SL 200 (17% strength), 150 g of active compound/ha • 3. azadirachtin 30 g of active compound/ha • 4. compound (I-1) as SL 200+azadirachtin, 150+30 g of active compound/ha • 5. positive control: imidacloprid 100 g of active compound/ha
The spray solution was prepared by mixing commercial formulations and using water to adjust to the concentration mentioned. The application rate was 1000 l/ha. 3 Applications were carried out at intervals of 10-14 days. The feeding damage caused by the caterpillars on the carnation leaves was scored at weekly intervals.

[4] = tested on: Plutella xylostella; test: Diamondback moth bioassay on Savoy cabbage leaf discs (Example 9)
Protocol: Example 9 also describes the effect of the combination according to the invention on caterpillars of diamondback moth Plutella xylostella on Savoy cabbage. The plants were grown in a greenhouse, and five plants each were treated as follows: The spray solution was prepared by mixing commercial formulations and using water to adjust to the concentration mentioned. The application rate was 1000 l/ha. • 1. untreated • 2. compound (I-1) as SL 200 (compound according to formula (I-1), 17% strength), 50 g of active compound/ha • 3. azadirachtin 30 g of active compound/ha, NeemAzal® • 4. azadirachtin 15 g of active compound/ha, NeemAzal® • 5. azadirachtin 5 g of active compound/ha, NeemAzal® • 6. compound (I-1) as SL 200+azadirachtin, 50+30 g of active compound/ha • 7. compound (I-1) as SL 200+azadirachtin, 50+15 g of active compound/ha • 8. compound (I-1) as SL 200+azadirachtin, 50+5 g of active compound/ha • 9. positive control imidacloprid 100 g of active compound/ha
The plants were incubated under greenhouse conditions (20° C., 70% relative atmospheric humidity), the plants being placed at random. After 3 days, the first leaf samples were taken. Here, 5 leaves were picked from each plant. 10 leaf discs of a diameter of 6 cm were punched from the leaves and placed in Petri dishes covered with moistened filter paper. Once the leaf discs had been placed into the Petri dishes, 5 Plutella xylostella larvae of the L2 instar were added. The Petri dishes were placed on a tablett, covered with a dark film and kept at 20° C. in the laboratory. Evaluation was carried out on days 9, 14 and 21 after the addition of the larvae, the number of surviving animals being scored.
What is shown is the effect of the products, which becomes evident in a reduction of the number of diamondback moths compared to the untreated control.

[5] = Day 2, (I-1) 50, azadirachtin 15, (I-1)+azadirachtin 50+15, imidacloprid 100 g/ha
[6] = Day 7, (I-1) 50, azadirachtin 15, (I-1)+azadirachtin 50+15, imidacloprid 100 g/ha
[7] = Day 14, (I-1) 50, azadirachtin 15, (I-1)+azadirachtin 50+15, imidacloprid 100 g/ha
[8] = Day 21, (I-1) 50, azadirachtin 15, (I-1)+azadirachtin 50+15, imidacloprid 100 g/ha
[9] = Days 28-32, (I-1) 50, azadirachtin 15, (I-1)+azadirachtin 50+15, imidacloprid 100 g/ha
[10] = Day 9, (I-1) 50, azadirachtin 30, (I-1)+azadirachtin 50+30, imidacloprid 100 g/ha
[11] = Day 14, (I-1) 50, azadirachtin 30, (I-1)+azadirachtin 50+30, imidacloprid 100 g/ha
[12] = Day 21, (I-1) 50, azadirachtin 30, (I-1)+azadirachtin 50+30, imidacloprid 100 g/ha
[13] = Day 2, azadirachtin 5, (I-1)+azadirachtin 50+5 g/ha
[14] = Day 7, azadirachtin 5, (I-1)+azadirachtin 50+5 g/ha
[15] = Day 14, azadirachtin 5, (I-1)+azadirachtin 50+5 g/ha
[16] = Day 21, azadirachtin 5, (I-1)+azadirachtin 50+5 g/ha
[17] = Days 28-32, azadirachtin 5, (I-1)+azadirachtin 50+5 g/ha

| Structure (SMILES) | Activity against adults [%] [1, 5] | Activity against larvae [%] [1, 5] | Activity against adults [%] [1, 6] | Activity against larvae [%] [1, 6] | Activity against adults [%] [1, 7] | Activity against larvae [%] [1, 7] | Activity against adults [%] [1, 8] | Activity against larvae [%] [1, 8] | Activity against adults [%] [1, 9] | Activity against larvae [%] [1, 9] | Activity against Phyllotreta nigripes [%] ([2]; Day 7) | Activity against Phyllotreta nigripes [%] ([2]; Days 14-16) | Activity against Phyllotreta nigripes [%] ([2]; Days 21-25) | Activity against Phyllotreta nigripes [%] ([2]; Days 28-32) | Day 7 reduction of feeding damage in % [3] | Day 32 reduction of feeding damage in % [3] | Day 40 reduction of feeding damage in % [3] | Activity against Plutella xylostella [%] [4, 10] | Activity against Plutella xylostella [%] [4, 11] | Activity against Plutella xylostella [%] [4, 12] | also measured |
| --- | --- | --- | --- | --- | --- | --- | --- | --- | --- | --- | --- | --- | --- | --- | --- | --- | --- | --- | --- | --- | --- |
| O=C1C=C(N(Cc2ccc(Cl)nc2)CC(F)F)CO1 [(I-1), 4-{[(6-chloropyrid-3-yl)methyl](2,2-difluoroethyl)amino}furan-2(5H)-one] | 86% | 0% | 88% | 0% | 93% | 18% | 96% | 4% | 67% | 68% | 0% | 9.5% | 7.4% | 2.8% | 0% | 49% | 88% | 0% | 21% | 34% | – |
| C/C=C(\C)C(=O)O[C@H]1C[C@@H](OC(C)=O)[C@@]2(C(=O)OC)CO[C@H]3[C@@H](O)[C@@](C)([C@]45O[C@@]4(C)[C@H]4C[C@@H]5O[C@@H]5OC=C[C@@]54O)[C@H]4[C@]1(CO[C@]4(O)C(=O)OC)[C@@H]32 [azadirachtin] | 57% | 0% | 64% | 0% | 65% | 20% | 76% | 32% | 76% | 37% | 29% | 51% | 35% | 34% | 0% | 92% | 100% | 46% | 72% | 25% | Activity against adults [%] [1, 13]: 41%; Activity against larvae [%] [1, 13]: 0%; Activity against adults [%] [1, 14]: 41%; Activity against larvae [%] [1, 14]: 0%; Activity against adults [%] [1, 15]: 40%; Activity against larvae [%] [1, 15]: 0%; Activity against adults [%] [1, 16]: 47%; Activity against larvae [%] [1, 16]: 0%; Activity against adults [%] [1, 17]: 40%; Activity against larvae [%] [1, 17]: 0%; Activity against Plutella xylostella [%] ([4]; Day 9, azadirachtin 5, (I-1)+azadirachtin 50+5 g/ha): 0%; Activity against Plutella xylostella [%] ([4]; Day 9, azadirachtin 15, (I-1)+azadirachtin 50+15 g/ha): 18%; Activity against Plutella xylostella [%] [4, 15]: 15%; Activity against Plutella xylostella [%] ([4]; Day 14, azadirachtin 15, (I-1)+azadirachtin 50+15 g/ha): 31%; Activity against Plutella xylostella [%] [4, 16]: 25%; Activity against Plutella xylostella [%] ([4]; Day 21, azadirachtin 15, (I-1)+azadirachtin 50+15 g/ha): 38% |
| O=[N+]([O-])NC1=NCCN1Cc1ccc(Cl)nc1 [imidacloprid] | 91% | 0% | 96% | 57% | 98% | 70% | 99% | 68% | 91% | 94% | 52% | 51% | 49% | 43% | 0% | 97% | 100% | 43% | 36% | 41% | Day 25 reduction of feeding damage in % ([3]; Day 25, (I-1) 150, azadirachtin 30, (I-1)+azadirachtin 150+30, imidacloprid 100 g of active compound/ha): 100% |

Reference: patent US8653110B2, “Active compound combination comprising azadirachtin and a substituted enaminocarbonyl compound” (Bayer CropScience AG, priority 2010, dated 2014)
